ChEMBL document CHEMBL3507680, “University of Dundee, Gates Library screen for HepG2 cell viability”

Assay: Human HepG2 cell viability assay in 384 well format
Assay type: toxicity, cell-based
Design: dose 125 nL, time 70.5 hour; cytotoxicity at 70.5 h: concentration not given beside the values
Settings: HepG2 cells, read-out: Inhibition

Row | SMILES | cytotoxicity at 70.5 h [%]
1 | CSc1ccsc1C(=O)NC(Cc1ccccc1)C(N)=O (stereo not drawn) | -1.87
2 | CN(CCN1CCN(c2ccccc2)CC1)C(=O)Nc1ccccn1 | 17.7
3 | Cc1ccc(CNC(=O)N(C)Cc2ccc([S+](C)[O-])cc2)s1 (stereo not drawn) | -6.72
4 | COC(=O)c1cccc(CNC(=O)CC(F)(F)F)c1 | -5.17
5 | OC1(CNCc2ccc(F)c(C(F)(F)F)c2)CCOC1 (stereo not drawn) | -2.64
6 | COc1cccc(Cn2cccc(C#N)c2=O)c1 | -7
7 | CCc1cccc(OCCn2cccc(C#N)c2=O)c1 | -8.55
8 | CCc1nnc(SCC(=O)Nc2cc(C(C)(C)C)nn2C)[nH]1 | -5.12
9 | CCc1ocnc1C(=O)N1CCC2(CC1)OCC(C)O2 (stereo not drawn) | -5.57
10 | Cc1csc(CNC(=O)N(C)Cc2ccc([S+](C)[O-])cc2)n1 (stereo not drawn) | -5.11
11 | COc1ccc(-c2nnc(C(C)N3CCC4(CC3)OCCO4)o2)cc1 (stereo not drawn) | -10.3
12 | O=C(NCC(O)COc1cccc(F)c1)C1(c2ccc(F)cc2)CC1 (stereo not drawn) | -12
13 | Cc1cccc(CN(Cn2nc(C)c3c(C)onc3c2=O)C2CC2)c1 | -13.7
14 | CNC(=O)c1cccc(NC(=O)NCc2ccc(SC)cc2)c1C | -7.01
15 | Cc1cnn(C2CN(c3nc(C)cc(N(C)C)n3)C2)c1 | 0.987
16 | NC(=O)C1CN(Cc2c(O)ccc3oc4c(c23)CCCC4)CCO1 (stereo not drawn) | -5.87
17 | Cc1ccc(CCNC(=O)NCc2cccc(OC(F)F)c2)cn1 | -8.89
18 | COc1cc2nc(NCc3cc(C)on3)nc(N)c2cc1OC | 34.1
19 | CCOc1ccc(NC(=O)NC2CCc3nc(C)nn3C2)cc1Cl (stereo not drawn) | -2.45
20 | CCc1ccc(C2COCCN2C(=O)Nc2cccc(C(C)=O)c2)o1 (stereo not drawn) | -1.25
21 | Cc1nonc1NC(=O)C1SCCc2ccccc21 (stereo not drawn) | 2.97
22 | CCc1ccc(C2COCCN2C(=O)Nc2cc(C)on2)o1 (stereo not drawn) | -3.5
23 | NC(=O)CN1CCC(NC2CCCCc3ccccc32)CC1 (stereo not drawn) | 5.24
24 | OCCNC1CSCCc2ccccc21 (stereo not drawn) | 33.4

Row | SMILES | cytotoxicity at 70.5 h [%]
25 | O=C(NCc1cc(Cl)ccn1)NCc1ccco1 | 13.9
26 | CS(=O)(=O)NCCNC(=O)NC1(c2ccc(Cl)cc2)CCC1 | 16.5
27 | Cc1nn(CN(Cc2ccsc2)C2CC2)c(=O)c2noc(C)c12 | -8.61
28 | OCCOc1ccc(NCc2cccnc2)cn1 | 24.6
29 | CCCNC(=O)CCNC1CSCCc2ccccc21 (stereo not drawn) | -2.78
30 | CCS(=O)(=O)NCCCNC1CSCCc2ccccc21 (stereo not drawn) | -7.41
31 | COCc1nccc(C2CCCN(Cc3cccc(C#N)c3)C2)n1 (stereo not drawn) | -9.48
32 | N#Cc1ccc(S(=O)(=O)NCCn2ccnc2)cc1Cl | -0.547
33 | O=C(NCc1ccccc1CN1CCCC1)Nc1nncs1 | 3.29
34 | Cn1c(=O)ccn(CC(=O)Nc2cnccc2O)c1=O | -4.1
35 | CC(Cn1ccnc1)NS(=O)(=O)c1ccc(C#N)c(Cl)c1 (stereo not drawn) | -9.17
36 | CC(C)(C(=O)NCc1ccccc1F)n1cc(Br)cn1 | -6.29
37 | NC(=O)c1ccc(C(=O)N2CCCCC2C2OCCO2)cc1 (stereo not drawn) | -10.6
38 | CN(C1CCN(c2ccccn2)CC1)S(=O)(=O)c1cccs1 | -8.7
39 | Cn1c(=O)ccn(CC(=O)Nc2cccnc2)c1=O | 12.6
40 | Cc1nn(C)c(N(C)C)c1CNCc1ccnn1C | -5.03
41 | Cc1cnc(CN2CCN(C(C)c3nc(C(C)C)no3)CC2)cn1 (stereo not drawn) | -6.56
42 | O=C(COCC1CC1)N1CCN(C(=O)Cc2ccccn2)CC1 | -1.46
43 | c1ccc(Cc2noc(CN3CCCCC3C3OCCO3)n2)cc1 (stereo not drawn) | -2.71
44 | COc1ccc(OCC(=O)NS(=O)(=O)c2cc(C)ccc2C)cc1 | -6.75
45 | N#Cc1ccc(SCCCO)c(F)c1 | -5.69
46 | COCc1nccc(C2CCCN(Cc3cccc(F)c3)C2)n1 (stereo not drawn) | 0.742
47 | O=C(c1ccc(Cl)c(Cl)c1)N1CCCCC1C1OCCO1 (stereo not drawn) | -4.22
48 | CC(C)c1nn(C)c(N(C)C)c1CNCc1ccnn1C | 18
